From US10166271B2, “Methods for promoting hair growth” (THE REGENTS OF THE UNIVERSITY OF CALIFORNIA, priority 2006, dated 2019)
Several values for one entry are separate records, joined by “and”; a condition that tells them apart may be missing. Equal entries are not always repeated.

Tests used:
ACTH release = conditions: adrenalectomized rats; similar doses; Rivier et al. 1999; cited from earlier work
CRF-OE mice [1] = test: Repeat sc experiment in female CRF-OE mice (4.5 months old): skin pigment and hair growth scores; assay type: in vivo; design: key to Skin pigmentation (Pg) score: 0 = bright pink skin, 10 = black pigmentation of entire region; key to Ventral Abdomen Hair Growth Score (VAb) / Back Hair Growth Score (BK): 0 = no change in hair, 10 = full hair growth in test area; conditions: sc 5 μg/mouse x 5 days
Procedure: Hair growth in CRF-OE mice was assessed using the hair growth scale developed by Vegesna et al. […], 2002) modified to account for phenotypic differences between CRF-OE mice. Scores were made visually as well as using photographs of each mouse at a weekly interval. The degree of alopecia varied between individual CRF-OE mice; thus, the percent difference between the amount of hair present in the test area (described below) before and 4 weeks after treatment was converted to a score of 0-10. A zero score corresponded to a no change in the amount of hair in the test area and a score of 10 corresponded to full hair growth in the entire test area. The scale for monitoring hair growth in CRF-OE mice is more particularly described in Table 2.
Pigmentation of the skin (also referred to as skin color) in the test region was also measured because, in C57BL/6 mice, the skin darkens at the onset of hair growth. A pigmentation score from 0-10 was given to each mouse with a score of 0 corresponding to bright pink skin color/pigment in the entire test region, a score of 1-5 corresponding to increasing intensity of a pale greyish color/pigment of skin in the test region, a score of 6-9 corresponding to increasing but non-confluent darker color/pigment of skin in the test region, and a score of 10 corresponding to black pigmentation of the entire test region. Pigmentation was measured one week after the fifth and final injection because changes (if any) in pigmentation are substantially complete by that time.
Experiments were repeated in female CRF-OE mice (4.5 months old) to confirm the results. Mice were injected with astressin B (5 μg/mouse, 10 mice) or saline (5 mice) for 5 days. Skin pigment and hair growth scores were given as described before. Five astressin B-treated and five saline injected mice were sacrificed for skin tissue collection at seven days post last injection. Additional mice (5) injected with astressin B were sacrificed on day 14. Five littermate wild type (WT) mice were used as normal control. Adrenal gland and abdominal fat weights were also checked at sacrifice of each mouse.
CRF-OE mice (approximately 4 months old) with fully developed alopecia on their backs were injected intraperitoneally (ip) with equal volumes (0.1 ml) of either saline or astressin B (5 μg/mouse/day) for 5 consecutive days. Skin pigment score and hair growth (on the back) score were determined as described in Example 1. In addition, because adult CRF-OE mice also lose ventral abdomen hair, a ventral abdomen (Vab) hair growth score was determined. The area considered for scoring ventral abdomen hair growth was delineated, in the front (anteriorly), by a horizontal line across the tip of the xifoid process (distal sternum), in the rear (posteriorly), by a horizontal line joining the back of the thighs along the anus, and, laterally, by a straight line along the lateral side of the ventral abdomen on left and right sides.

young CRF-OE mice = conditions: mouse, in vivo
Procedure: Each subcutaneous injection is given in a single puncture located along or about the midline of the back. Age-matched CRF-OE mice similarly injected with 0.1 ml vehicle alone are used as negative controls. Astressin B fragments are as described in Example 8. Alternatively, topical astressin B can be applied to the mouse's back, for example 0.05 mg, 0.5 mg, 5 mg, 50 mg, or 500 mg of an astressin B fragment once daily for at least five consecutive days
Hair growth (or hair loss) is assessed using the hair growth scale described in Example 1. The general conditions of treated and control mice, such as weight, back skin thickness, hair luster, skin wounds and indurations, are noted.

[2] = similar doses; Rivier et al. 2002; cited from earlier work
CRF-OE mice [3] = test: Cyclic CRF antagonists, hair growth in adult alopecic CRF-OE mice (Example 10); assay type: in vivo; conditions: at least four weeks after the final administration
Source text: Although mice are particularly described, one skilled in the art will appreciate that other laboratory animals and human subjects can be used, and doses adjusted accordingly (for example based on the weight of the subject, or the area to which the peptide is to be applied). Similarly although particular modes of administration are described, one will appreciate that variations can be made (such as those disclosed herein and those known in the art).
Any method of administration can be used, including injection, transdermal/topical delivery, or combinations thereof.
In one example, therapeutic peptides are administered via injection. For example, mice can be injected subcutaneously or intraperitoneally with at least 0.05 μg, at least 0.5 μg, at least 5 μg, at least 50 μg, or at least 500 μg of one or more therapeutic peptides (for example 0.5-50 μg peptide, 0.5-10 μg peptide, or 5 μg peptide). The peptide can be administered in 0.1 ml sterile saline (or 5% mannitol) once per day for at least 5 consecutive days, such as at least 10 days, at least 30 days, or at least 60 days. […] As a negative control, CRF-OE mice receive saline alone (such as 10-100 μl) or 5 μg astressin 2B in 0.1 ml saline.
In another example, therapeutic peptides are administered topically or transdermally. […]

[4] = Before (Week 0), individual mice and Ave., listed as AB
[5] = Before (Week 0), individual mice and Ave., listed as AB, mean
[6] = Week 1, individual mice and Ave., listed as AB
[7] = Week 1, individual mice and Ave., listed as AB, mean

Row | Substance | Duration of inhibition of elevated ACTH release (ACTH release) | Skin pigmentation (Pg) score (CRF-OE mice [1]; Before (Week 0), individual mice and Ave.) | Back Hair Growth Score (BK) (CRF-OE mice [1]; [4]) | Ventral Abdomen Hair Growth Score (VAb) (CRF-OE mice [1]; [4]) | Back Hair Growth Score (BK) (CRF-OE mice [1]; [5]) | Ventral Abdomen Hair Growth Score (VAb) (CRF-OE mice [1]; [5]) | Skin pigmentation (Pg) score (CRF-OE mice [1]; Before (Week 0), individual mice and Ave., mean) | Back Hair Growth Score (BK) (CRF-OE mice [1]; [6]) | Skin pigmentation (Pg) score (CRF-OE mice [1]; [6]) | Ventral Abdomen Hair Growth Score (VAb) (CRF-OE mice [1]; [6]) | Back Hair Growth Score (BK) (CRF-OE mice [1]; [7]) | Skin pigmentation (Pg) score (CRF-OE mice [1]; [7]) | Ventral Abdomen Hair Growth Score (VAb) (CRF-OE mice [1]; [7]) | Ventral Abdomen Hair Growth Score (VAb) (CRF-OE mice [1]; Week 2, 14 days follow-up group, individual mice and Ave.) | Back Hair Growth Score (BK) (CRF-OE mice [1]; Week 2, 14 days follow-up group, individual mice and Ave., listed as AB) | Back Hair Growth Score (BK) (CRF-OE mice [1]; Week 2, 14 days follow-up group, individual mice and Ave., listed as AB, mean) | Ventral Abdomen Hair Growth Score (VAb) (CRF-OE mice [1]; Week 2, 14 days follow-up group, individual mice and Ave., mean) | General conditions of treated mice (young CRF-OE mice) | Duration of delay of gastric emptying [2] | Hair in the test area (CRF-OE mice [3])
1 | (cyclo 30-33)[DPhe12, Nle21,38, Cml27,40, Glu30, Lys33]Ac-h/rCRF9-41 [Astressin B] | over 12 hours | 0 | 0.5 (4×) and 1 (2×) and 0 (4×) | 0.5 (4×) and 0.25 (6×) | 0.7 and 0.1 | 0.35 | 0 | 10 (4×) and 9.5 (3×) and 7 and 9 and 8.5 | 10 (4×) and 9.5 (3×) and 7 and 9 and 8.5 | 0.5 (2×) and 0.25 (7×) and 0.75 | 9.5 and 9.1 | 9.5 and 9.1 | 0.35 | 0.5 | 5 and 9.5 and 8 (2×) and 10 | 8.1 | 0.5 | well and substantially the same |  | 
2 | cyclo(31-34)[DPhe11, His12, CαMeLeu13,39, Nle17, Glu31, Lys34]Ac-Sau(8-40) [Astressin 2B, reference compound] |  |  |  |  |  |  |  |  |  |  |  |  |  |  |  |  |  |  | over 6 hours | remain bald in the test area
